The text below walks through data of patent US20100151486A1, “OSTEOPONTIN FUNCTIONAL EPITOPES, MONOCLONAL ANTIBODIES AGAINST THE EPITOPES AND USES THEREOF” (SHANGHAI NATIONAL ENGINEERING RESEARCH CENTER OF A, priority 2007, published 2010).

Experiment [1] concerns human vascular endothelial cell (HUVEC). The experiment can be described thus: HUVEC proliferation by 3H-TdR incorporation. The class given is cell-based. The following applies: M200+1% BSA+OPN; 24 hours. Here is the method: HUVEC cell proliferation was measured by the ^3H-TdR incorporation method to determine the protective effect of OPN on cell survival and the inhibitory effect of the anti-OPN antibodies on the OPN protection. Each well of a 96-well plate was inoculated with 2×10^4 HUVECs and cultured in a complete medium for 24 hours. The cells were then treated as following for 24 hours: […]
iv. M200+1% BSA+OPN+murine anti-OPN antibody 1A12 v. M200+1% , BSA+OPN+human-murine chimeric anti-OPN antibody c1A12 vi. M200+1% BSA+OPN+humanized anti-OPN antibody h1A12 vii. M200+1% BSA+OPN+irrelevant antibody
24 hours later, 1 uCi/well ^3H-thymidine was added and, after being incubated at 37° C. for 6 hours, washed once with PBS. The plate was treated with ice-cold 10% trichloroacetic acid/H2O at 4° C. for 10 min, and then washed for two times with, ice-cold ddH2O. Cytolysis was conducted by adding into each well 0.1 ml of 0.5 N NaOH, 0.5% SDS at room temperature for 10 min. After adding 0.2 ml of 0.5 N HCl and mixing, the cells were collected using a multiple cell collector.

The subject of experiment [2] is chicken embryo chorioallantoic membrane (CAM). The experiment is described as follows: Chicken embryo chorioallantoic membrane (CAM) angiogenesis assay. The class given is in vivo. The following applies: human OPN 250 ng; P<0.01. How it is done: The Leghorn chicken embryos were purchased from the farm with a fertilization rate of >90%. The 8-day old chicken embryos were selected. After sterilization, a small hole was drilled in the center of the top air chamber of the embryo with a lancet, the surrounding shell with the inner membrane was removed with caution to create an opening of 1 cm×1 cm. Then the following analytes/gelatin sponge were added to the CAM surface: i) PBS; ii) HOPN; iii) human OPN (250 ng); iv) human OPN (250 ng)+the irrelevant antibody as control (1 μg); v) human OPN (250 ng)+the murine anti-OPN antibody 1A12 (1 μg); vi) human OPN (250 ng)+the murine-human chimeric anti-OPN antibody c1A12 (1 μg); vii) human OPN (250 ng)+the humanized anti-OPN antibody h1A1.2 (1 μg).
The analytes/gelatin sponge were added to the CAM surface, which was far away from the already-formed dense vascular network. […] The number of vessels within an area edging 2 mm from the edges of the carrier slide was counted under a dissecting microscope to study the angiogenesis using the “vascular index” (Ribatti, D., B. Nico, A. Vacca et al., The gelatin sponge-chorioallantoic membrane assay. Nat Protoc, 2006, 1 (1): 85-91). The number of vessel was counted at the same magnification under the dissecting microscope. The result in each sample group was expressed as “mean±standard deviation (x±S)”. […]

The target of experiment [3] is T1, human osteopontin (human OPN protein) (human, UniProt P10451 17-314, limits assumed).
T1 construct: The isoform follows from the 963 bp PCR fragment and is not otherwise stated; also called hOPN
T1 sequence (P10451 17-314 limits assumed): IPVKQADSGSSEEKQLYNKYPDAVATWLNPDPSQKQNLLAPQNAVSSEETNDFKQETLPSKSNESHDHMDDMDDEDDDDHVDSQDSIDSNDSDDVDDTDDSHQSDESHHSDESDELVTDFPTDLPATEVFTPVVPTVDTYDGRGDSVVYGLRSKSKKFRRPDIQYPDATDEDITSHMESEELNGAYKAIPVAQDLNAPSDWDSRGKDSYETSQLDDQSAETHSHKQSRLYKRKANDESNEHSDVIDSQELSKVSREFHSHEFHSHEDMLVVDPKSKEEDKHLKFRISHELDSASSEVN
The experiment can be described thus: Western blot on purified recombinant OPN. On the technique in general: Immunoblotting shows a protein as a band on a membrane.

Experiment [4] deals with T1, human osteopontin (human OPN protein). The experiment is described as follows: ELISA, plate coated with OPN 2 ug/ml, COS-1 supernatant, HRP-rabbit anti-human IgG. How it is done: An ELISA plate was coated with 2 ug/ml OPN. The binding activity of the humanized antibody obtained from the transfection was detected by ELISA. […] The amino acid sequences of the h1A12HBb's and the h1A12Lb's variable regions were shown in FIG. 4, SEQ ID NO: 18 and SEQ ID NO: 19 show the nucleotide sequence and the amino acid sequence of h1A12Hb's variable region respectively. SEQ ID NO: 20 and SEQ ID NO: 21 show the nucleotide sequence and the amino acid sequence of h1A12Lb's variable region respectively. The genes of the humanized antibody's VH and VL (h1A12VHb/h1A12VLb) were synthesized respectively. […] Then, expression vectors of the light and the heavy chain were used to co-transfect the COS-1 cells. The antibody's antigen-binding activity was determined by ELISA. Specifically, an ELISA plate was coated with OPN protein (2 ug/ml) coated at 4° C. overnight, and was blocked with 2% BSA-PBS for 2 h at 37° C. […] HRP-rabbit anti-human IgG was added into the plate for binding reaction (incubated at 37° C. for 1 h).
Background: In an ELISA, binding on a coated surface is turned into a signal by an enzyme label.

In the case of “OPN: human osteopontin protein expressed in Pichia yeast and purified (Example 3)”, in experiment [1], the “3H-TdR incorporation relative to the 1% BSA treatment group” value is given as 3.08±0.64 times. In experiment [2], the “angiogenesis in the chicken embryo's CAM in comparison with PBS” value is “significantly enhance”.

B1: murine anti-human OPN monoclonal antibody 1A12 (antibody, V domains shown)
VH: QVQLEQSGPELVKPGASVKMSCKSSGYTFTTYVMHWVKQKPGQGLEWIGYINPYNDGSKYNEKFKGKATLTSDKSSNTAYMELSSLTSEDSAVYYCASHYGGSPAYWGQGTLVTVSA
VL: DILMTQTPLSLPVSLGDQASISCRSSQSLVHSNGNTYLHWYLQKPGQSPKLLIYKVSNRFSGVPDRFSGSGSGTDFTLKISRVEAEDLGVYFCSQSTHVPWTFGGGTKLEIKR
notes: Hybridoma antibody purified from mouse ascites on protein A. Mouse constant regions; also called mouse anti-hOPN mAb 1A12; anti-OPN mAb 1A12
In the case of B1, the binding result in experiment [3] is given as “binds”.

B2: human-mouse chimeric anti-hOPN antibody c1A12 (antibody, human IgG1, kappa, V domains shown)
VH: QVQLEQSGPELVKPGASVKMSCKSSGYTFTTYVMHWVKQKPGQGLEWIGYINPYNDGSKYNEKFKGKATLTSDKSSNTAYMELSSLTSEDSAVYYCASHYGGSPAYWGQGTLVTVSA
VL: DILMTQTPLSLPVSLGDQASISCRSSQSLVHSNGNTYLHWYLQKPGQSPKLLIYKVSNRFSGVPDRFSGSGSGTDFTLKISRVEAEDLGVYFCSQSTHVPWTFGGGTKLEIKR
notes: Tested as COS-1 supernatant in the ELISA and as CHO-purified antibody in the cell assays; also called chimeric antibody c1A12
B2: the binding result in experiment [4] is on record as “binds”.
